Measurements: patent US11179471B2, “Peptide for cytosolic delivery” (priority 2017, dated 2021)
Residues, ends and D or L forms follow the SMILES beside them.

Columns and labels:
[1] = test system: HeLa cells transfected with a plasmid encoding loxP-DsRed-loxP-EGFP; test: Genetic recombination assay by intracellular delivery of Cre protein (EGFP expression); assay type: cell-based
Protocol: HeLa cells transfected with a plasmid encoding loxP-DsRed-loxP-EGFP, which were prepared in the same manner as in the Examples of PTL 2, were incubated with His-tag fusion Cre (Cre-Hiss) (10 μM) in the presence of HAad, HA/E2, or L17E (40 μM each) for 1 hour. This system was designed to express EGFP when intracellular release of Cre protein induces genetic recombination. […] The proportions of GFP-expressing cells in the cells treated with HAad, HA/E2, and L17E were 41%, 36%, and 30%, respectively. Considering the fact that the EGFP expression efficiency achieved with no administration of a release peptide was 9%, peptide administration of HAad, HA/E2, and L17E can be considered to increase genetic recombination by 32%, 27%, and […], respectively, as compared with no peptide administration.

HeLa cells [2] = test: Nuclear accumulation of NLS-EGFP; assay type: cell-based; conditions: NLS-EGFP 10 μM; peptide 40 μM; α-MEM(−) 1 hour
Protocol: The cells and NLS-EGFP (10 μM) were incubated in the presence of HAad or L17E (40 μM each) in α-MEM(−) medium for 1 hour in the same manner as in Example 6. If NLS-EGFP is intracellularly released while maintaining its activity, localization of green fluorescence in the nuclei is observed. […] A high activity of HAad to release endosome-encapsulated substances was also confirmed in this system.

HeLa cells [3] = test: Intracellular release of Alexa 488-labeled human immunoglobulin (IgG, circa 160 kDa); assay type: cell-based; conditions: for cells in which intracellular release of human immunoglobulin was observed: α-MEM(−) 1 hour
Protocol: The cells and human immunoglobulin fluorescently labeled with Alexa 488 (IgG, circa 160 kDa) (500 μg/mL) were incubated in the presence of HAad, HA/E2, or L17E (40 μM each) in α-MEM(−) medium for 1 hour in the same manner as in Example 6.
The cells and human immunoglobulin fluorescently labeled with Alexa 488 (IgG, circa 160 kDa) (50 μg/mL: 1/10 the volume of Example 8) were incubated in the presence of HAad or L17E (40 μM each) in α-MEM(−) medium for 1 hour.
In the presence of HAad or L17E (20 μM each: ½ the amount used in Examples 8 and 9), the cells and human immunoglobulin fluorescently labeled with Alexa 488 (IgG, circa 160 kDa) (500 μg/mL: the same amount as in Example 8) were incubated in α-MEM(−) medium for 1 hour. […] (In FIG. 9, the intracellular release achieved by treatment with a low concentration of HAad was 2.5 times the release achieved by L17E. With respect to the peptide concentration required to detect the signal of intracellularly released human immunoglobulin in 35% of the cells, the concentration of L17E is 40 μM, and the concentration of HAad is 20 μM, which is half the concentration of L17E.)

NIH3T3 cells = test: Intracellular release of dextran (10 kDa) in NIH3T3 cells; assay type: cell-based
Protocol: Intracellular release of dextran is more difficult in NIH3T3 cells than in HeLa cells. NIH3T3 cells and dextran (10 kDa) were incubated in the presence of HAad, HA/E2, or L17E (40 μM each) in DEME(−) medium for 1 hour in the same manner as in Example 6.

[4] = test system: mitochondrial membrane of HeLa cells; conditions: HeLa; 40 μM, 1 hour in α-MEM(−); Lipofectamine LTX/pCI complex overnight in α-MEM(+)
Text: Mitochondrial membranes are considered to be rich in acidic lipid, as compared with cell membranes. Accordingly, the effects of the above peptides on a mitochondrial membrane were examined by JC-1 assay. A JC-1 reagent emits red (J-aggregate) fluorescence when the mitochondrial membrane is kept normal and the membrane potential is maintained; and the JC-1 reagent emits green (J-monomer) fluorescence when the mitochondrial membrane is damaged and the membrane potential is not kept normal. After HeLa cells were incubated with HAad, HA/E2, or L17E (40 μM) in α-MEM(−) for 1 hour, JC-1 assay was performed. The percentage of cells that emitted red fluorescence was assayed by flow cytometry.

RAW 264.7 cells = test: Cell-killing assay by intracellular delivery of toxin protein saporin (WST-8); assay type: cell-based; conditions: saporin 10 μg/mL, 40 μM
Protocol: Saporin is known as a cytotoxin that kills cancer cells by its intracellular delivery. RAW 264.7 cells and saporin (10 μg/mL) were incubated in the presence of HAad, HA/E2, or L17E (40 μM each) in α-MEM(−) medium for 1 hour. After the cells were then washed and the medium was replaced with DMEM(+), the cells were further incubated for 6 hours. The cell viability (%) was assayed by WST-8 assay (FIG. 10).

[5] = Cell viability 24 hours after peptide treatment in the presence of serum (WST-8); assay type: cell-based; conditions: cells (cell line not given); peptide 10 μM, 20 μM and 40 μM; α-MEM(+) 24 hours; WST-8
Protocol: (§1) After the cells were incubated in the presence of HAad, HA/E2, or L17E (each 10 μM, 20 μM, and 40 μM) in α-MEM(+) medium for 24 hours, the cell viability (%) was evaluated by WST-8 assay (FIG. 14). The cell viability (%) after 24 hours with the use of any peptide at any concentration was almost 100%.

cells = test: as above; assay type: cell-based; conditions: 10-40 μM; α-MEM(+) 24 hours
Protocol: as §1

[6] = Helix content from CD spectra in the presence of POPC/POPG (3:1) liposomes; assay type: physicochemical; conditions: result in words (FIG. 1)
Protocol: The helix content was calculated by the method of Y. H. Chen et al., 1972, based on 222-nm molar ellipticity ([…]) using the following formula: Helicity (%)=−([θ]222+2340)/30300*100.
The helix content of the peptides obtained in Example 1 (L17E, L17E/Q21E, L17Aad, HA/E1, HA/E2, and HAad) was calculated in the presence of POPC/POPG (3:1) liposomes by the method of Y. H. Chen et al., 1972, based on 222-nm molar ellipticity ([θ]222) using the following formula: Helix content (%)=−([θ]222+2340)/30300*100. Further, the CD spectra of the peptides were measured.

SMILES: CC[C@H](C)[C@H](N)C(=O)N[C@@H](Cc1c[nH]c2ccccc12)C(=O)N[C@@H](CC(C)C)C(=O)N[C@H](C(=O)N[C@@H](C)C(=O)N[C@@H](CC(C)C)C(=O)N[C@@H](CCCCN)C(=O)N[C@@H](Cc1ccccc1)C(=O)N[C@@H](CC(C)C)C(=O)NCC(=O)N[C@@H](CCCCN)C(=O)N[C@@H](C)C(=O)N[C@@H](C)C(=O)N[C@@H](C)C(=O)N[C@@H](CCCCN)C(=O)N[C@@H](C)C(=O)N[C@@H](CCCC(=O)O)C(=O)N[C@@H](C)C(=O)N[C@@H](CCCCN)C(=O)N[C@@H](CCC(N)=O)C(=O)N[C@@H](CCCC(=O)O)C(=O)N[C@@H](CC(C)C)C(=O)N[C@@H](CO)C(=O)N[C@@H](CCCCN)C(=O)N[C@@H](CC(C)C)C(N)=O)[C@@H](C)O [HAad, H-IWLTALKFLGKAAAKAXAKQXLSKL-amide] (HELM PEPTIDE1{I.W.L.T.A.L.K.F.L.G.K.A.A.A.K.A.[O=C(O)CCC[C@H](N[*:1])C(=O)[*:2]].A.K.Q.[O=C(O)CCC[C@H](N[*:1])C(=O)[*:2]].L.S.K.L.[am]}$$$$V2.0)
- proportion of GFP-expressing cells ([1]; Cre-His6 10 μM, peptide 40 μM, 1 hour, then 24 hours in α-MEM(+)): 41%
- increase of genetic recombination as compared with no peptide administration ([1]; EGFP expression with no release peptide was 9%): 32%
- cells in which localization of NLS-EGFP in the nuclei was observed (HeLa cells [2]): about 84%
- peptide concentration required to detect the signal of intracellularly released human immunoglobulin in 35% of the cells (HeLa cells [3]; IgG 500 μg/mL, 1 hour): 20 µM
- intracellular release of IgG relative to L17E (HeLa cells [3]; peptide 20 μM, IgG 500 μg/mL (FIG. 9)): 2.5 times
- cells in which intracellular release of human immunoglobulin was observed (HeLa cells [3]; peptide 20 μM, IgG 500 μg/mL): about 37%
- IgG dose required for intracellular IgG release in 50% of the cells, relative (HeLa cells [3]; peptide 40 μM, HAad treatment compared with L17E): 1/10
- intracellular release of IgG relative to L17E (HeLa cells [3]; peptide 40 μM, IgG 50 μg/mL (FIG. 8)): 5 times
- cells in which intracellular release of human immunoglobulin was observed (HeLa cells [3]; peptide 40 μM, IgG 50 μg/mL): 50%
- intracellular release of IgG relative to L17E (HeLa cells [3]; peptide 40 μM, IgG 500 μg/mL (FIG. 7)): twice
- cells in which intracellular release of human immunoglobulin was observed (HeLa cells [3]; peptide 40 μM, IgG 500 μg/mL): about 70%
- intracellular release of dextran relative to L17E (NIH3T3 cells; 40 μM): twice
- cells in which intracellular release of dextran was observed (NIH3T3 cells; peptide 40 μM, dextran (10 kDa), DEME(−) medium 1 hour): about 35%
- effect on mitochondrial membrane (cells emitting red JC-1 fluorescence), in words [4]: no significant difference from the untreated case
- cell viability relative to that in the presence of L17E (RAW 264.7 cells): ¼
- viability at 24 h [5]: ~100%
- toxicity, in words (cells): no significant toxicity
- helicity in the presence of an acidic lipid membrane [6]: high helicity
